Test results published in paper PMC9784924, “Antiviral Activity and Crystal Structures of HIV-1 gp120 Antagonists” (International Journal of Molecular Sciences, 2022).
Read-outs that look alike come from different tables or passages of the source.

Target: T1, HIV-1 reverse transcriptase (RT) (HIV-1 M:B_HXB2R, UniProt P04585)
T1 construct: gene gag-pol; enzyme of the Colorimetric Reverse Transcriptase Assay kit (Roche); cut from the Gag-Pol polyprotein; with p51 RT
Format: biochemical
Settings: n = 2
Source text: Colorimetric Reverse Transcriptase Assay (Roche) on HIV-1 reverse transcriptase (RT)

SMILES	IC50 (control) [µM]	IC50 [µM]
CC1(C)CC(NC(=O)C(=O)Nc2ccc(Cl)cc2)CC(C)(C)N1 [NBD-556, reference compound]	> 300	
NC[C@H](NC(=O)c1ccc(-c2ccc(C(F)(F)F)cn2)[nH]1)c1ncc(CO)s1 [NBD-14204]		8.3 ± 1.2
NC[C@H](NC(=O)c1ccc(-c2cc(F)c(Cl)c(F)c2)[nH]1)c1nc(CO)c(CO)s1 [NBD-14208]		5 ± 0.5
